# How the values were obtained:
# relapsed/refractory NHL = system: relapsed/refractory NHL; design: method as in ref 19 = [19]; 19. Assouline S , Mehta A , Phillips T , Alinari L , Danilov AV , Doucet S , . TAK-981, a first-in-class SUMO-activating enzyme inhibitor, combined with rituximab in adult patients (Pts) with CD20-pos; settings: in combination with rituximab; 24 patients with relapsed/refractory NHL; cited from earlier work
# IFNI pathway = IFNI pathway activation: IFNI gene signature in peripheral blood and plasma CXCL-10 (IP-10); format: in vivo, human
# Protocol: Blood samples for subasumstat–SUMO adduct formation and SUMO2/3 inhibition assessments were collected before dose and at 1, 4, and 8 hours after the infusion on C1D1 and C1D8. Blood samples for additional biomarker analyses were collected before dose on C1D1 and C1D8 and at 4, 8, and 24 hours after infusion on C1D1 and C1D8. Skin biopsies (used as surrogate tissue for solid tumors) were collected at screening and on C1D8 at 2 hours (±30 minutes) after end of infusion, and tumor biopsies were collected at screening and cycle 2 day 8 (C2D8; +7 days; whenever possible). In blood samples, a custom flow cytometry assay was utilized for detecting target engagement and SUMOylated protein levels in lymphocytes (including T-, B-, and NK-cell subsets). The assay included a PE-conjugated antibody specifically recognizing the SUMO–subasumstat adduct (MIL-113, anti–cysteinyl-TAK-981, Epitomics; refs. [14], [15], [22]) and an AF488-conjugated antibody recognizing SUMO2/3 conjugates (MBL International, cat. #M114-3, RRID: AB_592769). Peripheral blood cells were lysed/fixed, permeabilized (BD Biosciences), and stained with MIL-113 and M114-3 and with antibodies against CD45, CD3, CD19, CD16/CD56, and CD14. […] Activation of the IFNI pathway was assessed in peripheral blood by analysis of gene expression data (PanCancer IO 360 panel by NanoString for phase I and whole-transcriptome RNA sequencing data for phase II). […] These seven IFNI-regulated genes were selected prior to the trial, based on in vitro studies of the effect of subasumstat on human blood from 10 healthy donors analyzed on the NanoString PanCancer IO 360 panel. Plasma chemokines and cytokines were measured using the MesoScale Discovery platform (pro-inflammatory and chemokine panels, BioAgilytix). […] Tumor PD-L1 expression level was assessed in paired tumor biopsies using the 22C3 PD-L1 IHC assay; combined positive score (CPS) was calculated for baseline and on-treatment tumor samples. The immune landscape in the tumor microenvironment (TME) was assessed using an integrated RNAscope and 27-marker MultiOmyx immunofluorescence panel.
structure (smiles),measurement,setting,value
Cc1sc(C(=O)c2cncnc2N[C@@H]2C[C@H](COS(N)(=O)=O)[C@@H](O)C2)cc1[C@@H]1NCCc2ccc(Cl)cc21 [subasumstat],ORR,relapsed/refractory NHL,29%
same,Dose from which IFNI gene signature and plasma CXCL-10 (IP-10) were upregulated,"IFNI pathway; both dosing schedules, phase I, dose-dependent",≥ 40 mg
same,Recovery of IFNI gene signature and IP-10,IFNI pathway; both markers,returned to baseline levels before dose on C1D8
same,Time to increase of IP-10 plasma concentration after end of infusion,IFNI pathway; plasma,≤ 24 h

# Reference: publication PMC12627933, “A First-In-Human Study of the SUMOylation Inhibitor Subasumstat in Patients with Advanced/Metastatic Solid Tumors or Relapsed/Refractory Hematologic Malignancies” (Cancer Research Communications, 2025)
